The source made the active and inactive calls. The rule behind the calls is not given here.
What was measured:
[1] = target: T1, Peroxisome proliferator-activated receptor alpha (Homo sapiens, UniProt Q07869); test: Agonist activity at GAL4-tagged human PPARalpha ligand binding domain expressed in human HepG2 cells assessed as receptor transactivation by luciferase reporter gene assay; type: cell-based
T1 sequence (Q07869 whole entry): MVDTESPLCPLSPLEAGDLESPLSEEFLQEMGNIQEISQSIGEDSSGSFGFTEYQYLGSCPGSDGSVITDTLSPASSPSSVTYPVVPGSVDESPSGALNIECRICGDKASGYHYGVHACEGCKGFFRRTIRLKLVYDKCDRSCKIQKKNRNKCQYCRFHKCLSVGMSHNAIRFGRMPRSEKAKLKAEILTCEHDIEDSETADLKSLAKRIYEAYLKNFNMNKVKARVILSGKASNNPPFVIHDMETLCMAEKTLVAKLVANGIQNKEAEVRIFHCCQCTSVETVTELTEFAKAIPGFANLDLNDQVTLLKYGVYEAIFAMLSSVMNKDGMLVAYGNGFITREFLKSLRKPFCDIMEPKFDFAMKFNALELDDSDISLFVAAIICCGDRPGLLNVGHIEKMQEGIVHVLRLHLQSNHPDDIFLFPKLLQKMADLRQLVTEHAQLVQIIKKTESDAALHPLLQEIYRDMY

[2] = target: T2, Peroxisome proliferator-activated receptor alpha (Homo sapiens) (UniProt Q07869); test: Agonist activity at GAL4-tagged human PPARalpha ligand binding domain expressed in human HepG2 cells assessed as receptor transactivation by luciferase reporter gene assay relative to Wy-14643; type: cell-based
T2 sequence (whole entry): T1 sequence (Q07869 whole entry)

[3] = target: T3, Peroxisome proliferator-activated receptor gamma (Homo sapiens, UniProt P37231)
T3 sequence (P37231 whole entry): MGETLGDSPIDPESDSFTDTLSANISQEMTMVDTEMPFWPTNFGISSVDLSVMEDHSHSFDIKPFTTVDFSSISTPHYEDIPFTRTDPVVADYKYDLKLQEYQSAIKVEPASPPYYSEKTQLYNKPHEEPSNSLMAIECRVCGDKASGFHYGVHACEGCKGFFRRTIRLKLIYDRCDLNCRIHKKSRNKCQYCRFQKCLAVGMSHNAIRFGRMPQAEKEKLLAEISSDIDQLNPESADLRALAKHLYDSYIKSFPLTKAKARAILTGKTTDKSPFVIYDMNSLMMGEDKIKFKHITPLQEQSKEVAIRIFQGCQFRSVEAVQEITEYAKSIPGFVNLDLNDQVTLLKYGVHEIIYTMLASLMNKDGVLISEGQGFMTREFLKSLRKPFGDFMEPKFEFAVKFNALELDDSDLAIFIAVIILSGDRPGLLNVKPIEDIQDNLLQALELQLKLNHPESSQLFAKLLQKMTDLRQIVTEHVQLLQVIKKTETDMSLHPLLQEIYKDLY

[4] = tested on: Extensor digitorum longus; test: Inhibition of resting potassium conductance in Wistar rat extensor digitorum longus muscle by electrophysiology method; type: functional, tissue-based
[5] = target: T4, Chloride channel isoform 1 (Rattus norvegicus) (UniProt Q7TT78); test: Inhibition of CIC1 in Wistar rat extensor digitorum longus muscle assessed as decrease in resting chloride channel conductance at 100 uM by electrophysiology method; type: tissue-based; set-up: scale not given: the % may be the effect or the level left
T4 sequence (whole entry): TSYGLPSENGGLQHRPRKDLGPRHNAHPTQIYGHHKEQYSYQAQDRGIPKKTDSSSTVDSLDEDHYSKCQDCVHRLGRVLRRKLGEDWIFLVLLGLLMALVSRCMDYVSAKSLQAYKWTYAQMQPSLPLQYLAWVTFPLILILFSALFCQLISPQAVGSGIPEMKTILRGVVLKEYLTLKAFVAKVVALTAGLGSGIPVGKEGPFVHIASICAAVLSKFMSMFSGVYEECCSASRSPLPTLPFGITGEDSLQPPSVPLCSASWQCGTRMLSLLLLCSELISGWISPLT

[6] = target: T3, Peroxisome proliferator-activated receptor gamma; details: hepg2
[7] = target: T4, Chloride channel isoform 1 (Rattus norvegicus); test: Inhibition of CIC1 in Wistar rat extensor digitorum longus muscle assessed as decrease in resting chloride channel conductance at 50 uM by electrophysiology method; type: tissue-based; set-up: scale not given: the % may be the effect or the level left
[8] = target: T4, Chloride channel isoform 1 (Rattus norvegicus); test: Inhibition of CIC1 in Wistar rat extensor digitorum longus muscle assessed as decrease in resting chloride channel conductance at 5 uM by electrophysiology method; type: tissue-based; set-up: scale not given: the % may be the effect or the level left

| Compound | EC50 ([1]; read-out: EC50) [nM] | Efficacy [2] | EC50 [3] [nM] | further results |
| --- | --- | --- | --- | --- |
| O=C(O)C(Cc1ccccc1)Oc1ccc(OCc2ccccc2)cc1 (racemic) | 107 | 112% | 2400 |  |
| O=C(O)C(Cc1ccccc1)Oc1ccc(CNc2ccccc2)cc1 (racemic) | 1400 | 120% | 9400 |  |
| O=C(O)C(Cc1ccccc1)Oc1ccc(CCCc2ccccc2)cc1 (racemic) | 720 | 67% |  |  |
| O=C(O)[C@H](Cc1ccccc1)Oc1ccc(CCc2ccccc2)cc1 |  |  | 400 | Activity [4]: inactive; Activity [5]: 24% |
| O=C(O)C(Cc1ccccc1)Oc1ccc(Oc2ccccc2)cc1 (racemic) | 60 | 126% | 1210 |  |
| O=C(O)C(Cc1ccccc1)Oc1ccc(CCc2ccccc2)cc1 (racemic) | 330 | 86% | 860 |  |
| CC(C)(Oc1ccc(Cl)cc1)C(=O)O |  |  |  | Activity [5]: 28% |
| Cc1cccc(Nc2cc(Cl)nc(SCC(=O)O)n2)c1C [PIRINIXIC ACID] |  |  |  | EC50 [6]: Not Active |
| O=C(O)C(Cc1ccccc1)Oc1ccc(Cc2ccccc2)cc1 (racemic) | 15.9 | 115% | 580 |  |
| O=C(O)C(Cc1ccccc1)Oc1ccc(CSc2ccccc2)cc1 (racemic) | 310 | 92% | 400 |  |
| O=C(O)[C@@H](Cc1ccccc1)Oc1ccc(CCc2ccccc2)cc1 |  | inactive | 1600 | EC50 ([1]; hepg2): Not Active |
| O=C(O)C(Cc1ccccc1)Oc1ccc(C#Cc2ccccc2)cc1 (racemic) | 1360 | 36% | 540 |  |
| O=C(O)C(Cc1ccccc1)Oc1ccc(COc2ccccc2)cc1 (racemic) | 600 | 107% | 3000 |  |
| O=C(O)[C@H](Cc1ccccc1)Oc1ccc(Cc2ccccc2)cc1 | 11.5 |  | 572 | Activity [7]: 2%; Activity [4]: inactive; Activity [5]: 9% |
| CC(C)(Oc1ccc(C(=O)c2ccc(Cl)cc2)cc1)C(=O)O |  |  |  | Activity [5]: 11% |
| O=C(O)[C@@H](Cc1ccccc1)Oc1ccc(Cc2ccccc2)cc1 | 2400 | 82% | 5700 |  |
| O=C(O)[C@H](Cc1ccccc1)Oc1ccc(-c2ccccc2)cc1 |  | 116% |  | Activity [8]: 2%; Activity [4]: inactive; Activity [5]: 12% |
| O=C(Cc1ccccc1)c1ccc(OC(Cc2ccccc2)C(=O)O)cc1 (racemic) | 1800 | 106% | 9100 |  |
| CN(CCOc1ccc(CC2SC(=O)NC2=O)cc1)c1ccccn1 (stereo not drawn) [ROSIGLITAZONE] |  | inactive |  | EC50 ([1]; hepg2): Not Active |
| O=C(O)C(Cc1ccccc1)Oc1ccc(NCc2ccccc2)cc1 (racemic) | 3600 | 78% | 13000 |  |
| O=C(O)C(Cc1ccccc1)Oc1ccc(SCc2ccccc2)cc1 (racemic) | 488 | 134% | 1400 |  |
